Test results as given in ChEMBL document CHEMBL5512633, “Hit-to-lead optimization of 2-aminoquinazolines as anti-microbial agents against Leishmania donovani” (Eur J Med Chem, 2024).
Blank lines part the entries; values can stand above or below the compound they belong to.

What was measured:
Leishmania donovani [1] = test: Antileishmanial activity against Leishmania donovani MHOM/IN/1983/AG83 axenic amastigotes assessed as inhibition of growth at 20 uM incubated for 48 hrs by flow cytometric analysis relative to control; assay type: functional
[2] = Cytotoxicity against human THP-1 cells incubated for 72 hrs by DAPI staining based analysis; assay type: toxicity, cell-based
[3] = Lipophilicity, logD of compound in 1-octanol and phosphate buffer at pH 7.4 by HPLC-UV analysis; assay type: physicochemical; conditions: 1-octanol/phosphate buffer
[4] = Cytotoxicity against human HepG2 cells assessed as inhibition of cell growth at 80 uM incubated for 48 hrs by PI staining based flow cytometric analysis relative to control; assay type: toxicity
[5] = Selectivity index, ratio of CC50 for cytotoxicity against human HepG2 cells to IC50 for antileishmanial activity against Leishmania donovani MHOM/IN/1983/AG83 axenic amastigotes; assay type: toxicity, cell-based; conditions: read-out: Ratio CC50/IC50
[6] = Cytotoxicity against human HepG2 cells incubated for 48 hrs by PI staining based flow cytometric analysis; assay type: toxicity, cell-based
Leishmania donovani [7] = test: Antileishmanial activity against Leishmania donovani MHOM/IN/1983/AG83 axenic amastigotes assessed as inhibition of growth incubated for 48 hrs by flow cytometric analysis; assay type: functional, organism-based; conditions: MHOM/IN/1983/AG83, 48 h
[8] = Stability in human plasma assessed as compound remaining measured after 2 hrs by LC-MS/MS analysis; assay type: ADME, cell-free; conditions: read-out: Stability
[9] = Metabolic stability in human liver microsomes assessed as half-life preincubated for 10 mins and measured after 60 mins by LC-MS/MS analysis; assay type: ADME, Microsome
[10] = Metabolic stability in human liver microsomes assessed as hepatic blood flow preincubated for 10 mins and measured after 60 mins by LC-MS/MS analysis; assay type: ADME, Microsome; conditions: read-out: QH
[11] = Metabolic stability in mouse liver microsomes assessed as hepatic blood flow preincubated for 10 mins and measured after 60 mins by LC-MS/MS analysis; assay type: ADME, Microsome; conditions: read-out: QH
[12] = Metabolic stability in mouse liver microsomes assessed as half-life preincubated for 10 mins and measured after 60 mins by LC-MS/MS analysis; assay type: ADME, Microsome
[13] = Stability in mouse plasma assessed as compound remaining measured after 2 hrs by LC-MS/MS analysis; assay type: ADME, cell-free; conditions: read-out: Stability

SMILES: COc1cc2c(N3CCCCC3)nc(NCc3cccc(F)c3)nc2cc1OC1CCCC1
inhibition at 20 µM (Leishmania donovani [1]): ~40.8%
CC50 at 72 h [2]: > 3 µM

SMILES: COc1cc2c(N3CCCCC3)nc(Nc3ccc(C(F)(F)F)cc3)nc2cc1OC1CCCC1
inhibition at 20 µM (Leishmania donovani [1]): ~35.3%
CC50 at 72 h [2]: > 50 µM

logD [3]: 4.64
remaining at 2 h [8]: 61%
half-life [9]: 23.8 min
hepatic extraction ratio at 1 h [10]: 0.575
hepatic extraction ratio at 1 h [11]: 0.494
half-life [12]: 19.4 min
remaining at 2 h [13]: 44.3%
SMILES: COc1cc2c(N3CCCCC3)nc(NC(=O)c3ccc(F)cc3)nc2cc1OC1CCCC1
inhibition at 48 h, 80 µM [4]: 10.8%
selectivity ratio [5]: > 15
CC50 at 48 h [6]: > 80 µM
IC50 (Leishmania donovani [7]): 5.43 µM
CC50 at 72 h [2]: 89.5 µM

SMILES: COc1cc2c(N3CCCCC3)nc(NCc3cccc(Cl)c3)nc2cc1OC1CCCC1
inhibition at 20 µM (Leishmania donovani [1]): ~12%
CC50 at 72 h [2]: 43.8 µM
